Experimental data as given in patent US20070059788A1, “Method and apparatus for electrically detecting an adverse effect of a toxic substance on procaryotic cells” (priority 2005, published 2007).

Key:
Format in all cases: cell-based
E. coli BL21 cells [1] = test: impedance (E′, E″) measurement of cells immobilized on an interdigit electrode chip
Description: After a suspension of E. coli BL21 cells (1×10^10 ells) was mixed with 1 ml of 1.5% agarose, 1 ul of the resulting mixture was laid and immobilized on the surface of a positive dielectrophoresis (“DEP”) 0 chip.
Subsequently, the cells-immobilized chip was soaked in 10 ml of 1 μM KCl solution and its initial dielectric permittivity (E′) and dielectric losses (E″) were measured. […] The chip was then taken out of the 10 ml of 1 μM KCl solution and washed with 1 μM KCl solution three times. After soaking the chip in 10 ml of 1 μM KCl solution, dielectric permittivity (E′) and dielectric losses (E″) were measured.
Control 2 is a case of treating only 1 μM KCl solution to the chip immobilized with E. coli cells, which represents the noise of prokaryotic cells themselves that varies with the passage of time.
In FIGS. 2A to 2C, Line b represents an initial impedance value measured after the cell immobilization, and Line a represents an impedance value measured after treating with a toxic substance or 1 μM KCl solution.

E. coli BL21 cells [2] = test: colony counting of the cells-immobilized chip
Description: (§1) The optical detection method was performed using a Baclight™ Bacterial Membrane Potential Kit (commercially available from by Molecular Probes Inc., U.S.A.) for verification.

E. coli BL21 cells [3] = test: optical detection of cell membrane potential (Baclight Bacterial Membrane Potential Kit)
Description: as §1

| Compound | reduction in the cell membrane's impedance (E′) signal (E. coli BL21 cells [1]; 20% ethanol (FIG. 2C)) | adverse effect by colony counting (E. coli BL21 cells [2]; 20% ethanol) | reduction in the cell membrane potential measured by the optical method (E. coli BL21 cells [3]; 20% ethanol, compared with untreated control (FIG. 6)) | reduction of impedance signal (E″) of the cell membrane (E. coli BL21 cells [1]; 5 μM CCCP, compared with the untreated control (FIG. 4C)) | change in E′ and E″ signals over the initial impedance value (E. coli BL21 cells [1]; 5 μM CCCP, same method as Example 1) | adverse effect by colony counting (E. coli BL21 cells [2]; 5 μM CCCP versus untreated control (FIG. 5A)) | reduction of cell membrane potential (E. coli BL21 cells [3]; 5 μM CCCP, compared with untreated control (FIG. 5B)) [%] |
| --- | --- | --- | --- | --- | --- | --- | --- |
| CCO [ethanol] | about 36% | difficult to measure an adverse effect | almost nothing | – | – | – | – |
| carbonyl cyanide m-chloropheoxyhydrazone [CCCP] | – | – | – | about 32% | significant reduction | difficult to measure an adverse effect | 10 |
